ChEMBL document CHEMBL5241090, “A comprehensive overview of β-carbolines and its derivatives as anticancer agents” (Eur J Med Chem, 2021)
≈ marks a conversion by molar mass, not a printed value.

Legend:
PC-3 [1] = assay: Antiproliferative activity against human PC-3 cells; assay type: functional, cell-based
LoVo [2] = assay: Cytotoxicity against human LoVo cells by MTT assay; assay type: functional
K562 = assay: Cytotoxicity against human K562 cells; assay type: functional, cell-based
A549 [3] = assay: Cytotoxicity against human A549 cells assessed as cell viability incubated for 1 hr by spectrophotometry; assay type: functional, cell-based; conditions: A549, 1 h
HepG2 [4] = assay: Cytotoxicity against human HepG2 cells assessed as cell viability incubated for 1 hr by spectrophotometry; assay type: functional, cell-based; conditions: HepG2, 1 h
LoVo [5] = assay: Cytotoxicity against human LoVo cells assessed as cell viability incubated for 1 hr by spectrophotometry; assay type: functional, cell-based
HeLa [6] = assay: Cytotoxicity against human HeLa cells assessed as cell viability incubated for 1 hr by spectrophotometry; assay type: functional, cell-based
HT-29 [7] = assay: Cytotoxicity against human HT-29 cells assessed as cell viability incubated for 1 hr by spectrophotometry; assay type: functional, cell-based; conditions: HT-29, 1 h
Bel-7402 = assay: Cytotoxicity against human Bel-7402 cells assessed as cell viability incubated for 1 hr by spectrophotometry; assay type: functional, cell-based; conditions: Bel-7402, 1 h
786-0 = assay: Cytotoxicity against human 786-0 cells assessed as cell viability incubated for 1 hr by spectrophotometry; assay type: functional, cell-based; conditions: 786-0, 1 h
KB = assay: Cytotoxicity against human KB cells assessed as cell viability incubated for 1 hr by spectrophotometry; assay type: functional, cell-based
A-375 = assay: Cytotoxicity against human A-375 cells assessed as cell viability incubated for 1 hr by spectrophotometry; assay type: functional, cell-based; conditions: A-375, 1 h
769-P = assay: Cytotoxicity against human 769-P cells assessed as cell viability incubated for 1 hr by spectrophotometry; assay type: functional, cell-based
BGC-823 = assay: Cytotoxicity against human BGC-823 cells assessed as cell viability incubated for 1 hr by spectrophotometry; assay type: functional, cell-based; conditions: BGC-823, 1 h
HCC1395 = assay: Antiproliferative activity against human HCC1395 cells incubated for 48 hrs by MTT assay; assay type: functional, cell-based; conditions: HCC1395, 48 h
CCRF-CEM = assay: Cytotoxicity against human drug sensitive CCRF-CEM cells assessed as fluorescence incubated for 72 hrs by resazurin reduction assay; assay type: functional, cell-based
Keratinocyte = assay: Cytotoxicity against guinea pig ear keratinocytes using [3H]thymidine by liquid scintillation counting analysis; assay type: functional, cell-based; conditions: Cavia porcellus
DU-145 = assay: Antiproliferative activity against human DU-145 cells incubated for 48 hrs by MTT assay; assay type: functional, cell-based; conditions: DU-145, 48 h
ADR5000 cell line = assay: Cytotoxicity against human multidrug-resistant CEM/ADR5000 cells assessed as fluorescence incubated for 72 hrs by resazurin reduction assay; assay type: functional, cell-based; conditions: ADR5000, 72 h
HL-60 = assay: Cytotoxicity against human HL-60 cells; assay type: functional, cell-based; conditions: Homo sapiens, HL-60; read-out: IC50
PC-3 [8] = assay: Cytotoxicity against human PC-3 cells; assay type: functional, cell-based
SGC-7901 = assay: Cytotoxicity against human SGC-7901 cells; assay type: functional, cell-based
B16 = assay: Cytotoxicity against mouse B16 cells by MTT assay; assay type: functional, cell-based
PC-3 [9] = assay: Cytotoxicity against human PC-3 cells by MTT assay; assay type: functional, cell-based
HT-29 [10] = assay: Cytotoxicity against human HT-29 cells by MTT assay; assay type: functional, cell-based
HeLa [11] = assay: Cytotoxicity against human HeLa cells by MTT assay; assay type: functional, cell-based
A549 [12] = assay: Cytotoxicity against human A549 cells by MTT assay; assay type: functional, cell-based
HeLa [13] = assay: Cytotoxicity against human HeLa cells measured after 24 hrs by MTT assay; assay type: functional, cell-based
HepG2 [14] = assay: Cytotoxicity against human HepG2 cells measured after 24 hrs by MTT assay; assay type: functional, cell-based; conditions: HepG2, 24 h
HCT-116 = assay: Cytotoxicity against human HCT-116 cells measured after 48 hrs by MTT assay; assay type: functional, cell-based; conditions: HCT-116, 48 h
EJ = assay: Cytotoxicity against human EJ cells measured after 48 hrs by MTT assay; assay type: functional, cell-based
SMMC-7721 = assay: Cytotoxicity against human SMMC-7721 cells measured after 48 hrs by MTT assay; assay type: functional, cell-based; conditions: SMMC-7721, 48 h
NCI-H460 = assay: Cytotoxicity against human NCI-H460 cells measured after 48 hrs by MTT assay; assay type: functional, cell-based; conditions: NCI-H460, 48 h
HepG2 [15] = assay: Cytotoxicity against human HepG2 cells measured after 48 hrs by MTT assay; assay type: functional, cell-based; conditions: HepG2, 48 h
OVCAR-3 = assay: Cytotoxicity against human OVCAR-3 cells by MTT assay; assay type: functional, cell-based
SW480 = assay: Cytotoxicity against human SW480 cells by MTT assay; assay type: functional, cell-based
HT-29 [16] = assay: Cytotoxicity against human HT-29 cells measured after 48 hrs by MTT assay; assay type: functional, cell-based; conditions: HT-29, 48 h
HGC-27 = assay: Cytotoxicity against human HGC-27 cells measured after 48 hrs by MTT assay; assay type: functional, cell-based; conditions: HGC-27, 48 h
PC-3 [17] = assay: Cytotoxicity against human PC-3 cells measured after 48 hrs by MTT assay; assay type: functional, cell-based; conditions: PC-3, 48 h
HeLa [18] = assay: Cytotoxicity against human HeLa cells measured after 48 hrs by MTT assay; assay type: functional, cell-based
MCF7 = assay: Cytotoxicity against human MCF7 cells measured after 48 hrs by MTT assay; assay type: functional, cell-based; conditions: MCF7, 48 h
SUNE1 = assay: Cytotoxicity against human SUNE1 cells incubated for 72 hrs by MTT assay; assay type: functional, cell-based; conditions: SUNE1, 72 h
HepG2 [19] = assay: Cytotoxicity against human HepG2 cells incubated for 72 hrs by MTT assay; assay type: functional, cell-based; conditions: HepG2, 72 h
CNE-2 = assay: Cytotoxicity against human CNE-2 cells incubated for 72 hrs by MTT assay; assay type: functional, cell-based; conditions: CNE-2, 72 h
[20] = Cytotoxicity against human QGY-7701 cells incubated for 72 hrs by MTT assay; assay type: functional, cell-based; conditions: QGY7701, 72 h
CNE = assay: Cytotoxicity against human CNE-1 cells incubated for 72 hrs by MTT assay; assay type: functional, cell-based
HONE1 cell line = assay: Cytotoxicity against human HONE1 cell line incubated for 72 hrs by MTT assay; assay type: functional, cell-based; conditions: HONE1, 72 h

Q: With `COc1c[n+](Cc2ccccc2)c2ccc(=O)n3c4ccccc4c1c23` as the molecule, how does the IC50 (PC-3 [1]) read?
A: The IC50 was 8 µM.

Q: For `CCCCn1c2ccccc2c2cc(C(=O)O)ncc21`, which IC5 (LoVo [2]) is on record?
A: Its IC5 is 11 µM.

Q: For `CC[C@H](C)[C@H](NC(=O)[C@H](Cc1c[nH]c2ccccc12)NC(=O)[C@H](Cc1c[nH]c2ccccc12)NC(=O)c1cc2c([nH]c3ccccc32)c(-c2ccc(O)c(OC)c2)n1)C(=O)OCc1ccccc1`, which IC50 (K562) is on record?
A: The IC50 was 12 µM.

Q: Which IC50 (A549 [3]) does the source give for `COc1ccc(/C=C/c2c3c(cc[n+]2Cc2ccccc2)c2ccccc2n3CCCc2ccccc2)cc1` here?
A: The IC50 was under 5 µM.

Q: And the IC50 (HepG2 [4])?
A: Its IC50 is under 5 µM.

Q: What about the IC50 (LoVo [5]) of the same molecule?
A: The IC50 was under 5 µM.

Q: And the IC50 (HeLa [6])?
A: Its IC50 is under 5 µM.

Q: What about the IC50 (HT-29 [7]) of the same molecule?
A: The IC50 was under 5 µM.

Q: What about the IC50 (Bel-7402) of the same molecule?
A: The IC50 was under 5 µM.

Q: And the IC50 (786-0)?
A: Its IC50 is under 5 µM.

Q: What about the IC50 (KB) of the same molecule?
A: The IC50 was under 5 µM.

Q: What about the IC50 (A-375) of the same molecule?
A: The IC50 was under 5 µM.

Q: And the IC50 (769-P)?
A: The IC50 was under 5 µM.

Q: What about the IC50 (BGC-823) of the same molecule?
A: The IC50 was under 5 µM.

Q: Which IC50 (HCC1395) does the source give for `O=c1ccc2nccc3c4ccccc4n1c23` [CANTHIN-6-ONE] here?
A: Its IC50 is 8.12 µg/mL (≈ 36.9 µM).

Q: And the IC50 (CCRF-CEM)?
A: Its IC50 is 15.8 µM.

Q: And the IC50 (Keratinocyte)?
A: Its IC50 is 1.11 µg/mL (≈ 5.04 µM).

Q: And the IC50 (DU-145)?
A: Its IC50 is 9.43 µg/mL (≈ 42.8 µM).

Q: What about the IC50 (ADR5000 cell line) of the same molecule?
A: Its IC50 is 10.5 µM.

Q: With `COC(=O)NCCc1c(C(=O)C[C@]2(C)c3[nH]c4cc(OC)ccc4c3CCN2C(=O)OC)[nH]c2cc(OC)ccc12` as the molecule, how does the IC50 (HL-60) read?
A: The IC50 was 3.81 µM.

Q: And the IC50 (PC-3 [8])?
A: The IC50 was 11.5 µM.

Q: What about the IC50 (SGC-7901) of the same molecule?
A: The IC50 was 15.2 µM.

Q: Which results are given for `COc1cc(C(=O)/C=C/c2cc3c([nH]c4ccccc43)c(-c3cc(OC)c(OC)c(OC)c3)n2)cc(OC)c1OC`?
A: IC50 (B16): 5.3 µM; IC50 (PC-3 [9]): 5.3 µM; IC50 (HT-29 [10]): 5.3 µM; IC50 (HeLa [11]): 5.3 µM

Q: For `C[C@@H](O)CCCCC(=O)c1nccc2c1[nH]c1ccccc12`, which IC50 (A549 [12]) is on record?
A: Its IC50 is 1.7 µM.

Q: For `COC(=O)c1cc2c([nH]c3ccccc32)c(-c2cccc(OCc3cn(-c4ccc(Cl)c(Cl)c4)nn3)c2)n1`, which IC50 (HeLa [13]) is on record?
A: Its IC50 is 46 µM.

Q: And the IC50 (HepG2 [14])?
A: Its IC50 is 32 µM.

Q: Which results are given for `Cc1nc(C(=O)NCCCCNC(=O)c2ccccc2O)cc2c1[nH]c1ccccc12`?
A: IC50 (HCT-116): 6.97 µM; IC50 (EJ): 6.97 µM; IC50 (SMMC-7721): 6.97 µM; IC50 (NCI-H460): 6.97 µM; IC50 (HepG2 [15]): 6.97 µM

Q: For `CC(C)OC(=O)c1cc2c([nH]c3ccccc32)c(-c2cccc3ccccc23)n1`, which IC50 (PC-3 [9]) is on record?
A: The IC50 was 7.1 µM.

Q: What about the IC50 (OVCAR-3) of the same molecule?
A: The IC50 was 7.5 µM.

Q: And the IC50 (SW480)?
A: Its IC50 is 2.7 µM.

Q: With `COc1cc(-c2nc(Cn3cc(CN4C(=O)c5ccccc5C4=O)nn3)cc3c2[nH]c2ccccc23)cc(OC)c1OC` as the molecule, how does the IC50 (HT-29 [16]) read?
A: Its IC50 is 3.67 µM.

Q: And the IC50 (HGC-27)?
A: The IC50 was 3.67 µM.

Q: And the IC50 (PC-3 [17])?
A: Its IC50 is 3.67 µM.

Q: And the IC50 (HeLa [18])?
A: Its IC50 is 3.67 µM.

Q: What about the IC50 (MCF7) of the same molecule?
A: Its IC50 is 3.67 µM.

Q: For `O=C(c1nccc2c1[nH]c1ccccc12)[C@@H](O)CCCO`, which IC50 (SUNE1) is on record?
A: Its IC50 is 45.3 µM.

Q: And the IC50 (HepG2 [19])?
A: Its IC50 is 50.9 µM.

Q: And the IC50 (CNE-2)?
A: The IC50 was 20.6 µM.

Q: What about the IC50 [20] of the same molecule?
A: The IC50 was 29 µM.

Q: What about the IC50 (CNE) of the same molecule?
A: Its IC50 is 16.3 µM.

Q: And the IC50 (HONE1 cell line)?
A: The IC50 was 20.1 µM.
